Data: US9725449B2, “Tricyclic compounds as anticancer agents” (BRISTOL-MYERS SQUIBB COMPANY, priority 2015, dated 2017)

Biological target: BRD4 (Homo sapiens, UniProt O60885)
Assay: Time resolved fluorescence resonance energy transfer (TR-FRET) binding assay, bromodomain BRD4
Settings: one of the FRET assays described; read-out: FRET BRD4 IC50

Compound	IC50 [nM]
CNS(=O)(=O)c1ccc2c3ncc(-c4c(C)nnn4C)cc3n([C@H](c3ccccc3)C3CCOCC3)c2n1 [Example 199, 5-(Dimethyl-1H-1,2,3-triazol-5-yl)-N-methyl-8-[(S)-oxan-4-yl(phenyl)methyl]-3,8,10-triazatricyclo[7.4.0.0^2,^7]trideca-1(9),2(7),3,5,10,12-hexaene-11-sulfonamide]	< 10
Cc1nnn(C)c1-c1cnc2c3ccc([S+](C)[O-])nc3n([C@H](c3ccccc3)C3CCOCC3)c2c1 (stereo partly drawn) [Example 200, 5-(Dimethyl-1H-1,2,3-triazol-5-yl)-11-methanesulfinyl-8-[(S)-oxan-4-yl(phenyl)methyl]-3,8,10-triazatricyclo[7.4.0.0^2,^7]trideca-1(9),2(7),3,5,10,12-hexaene]	< 10
[2H]C([2H])([2H])c1nnn(C)c1-c1cnc2c3cnc(S(C)(=O)=O)cc3n([C@H](c3ccccc3)C3CCOCC3)c2c1 [Example 201, 11-Methanesulfonyl-5-[4-(^2H3)methyl-1-methyl-1H-1,2,3-triazol-5-yl]-8-[(S)-oxan-4-yl(phenyl)methyl]-3,8,12-triazatricyclo[7.4.0.0^2,^7]trideca-1(9),2(7),3,5,10,12-hexaene]	< 10
[2H]C([2H])([2H])c1nnn(C)c1-c1cnc2c3ccc(C(C)=O)nc3n([C@H](c3ccccc3)C3CCOCC3)c2c1 [Example 202, 1-{5-[4-(^2H3)Methyl-1-methyl-1H-1,2,3-triazol-5-yl]-8-[(S)-oxan-4-yl(phenyl)methyl]-3,8,10-triazatricyclo[7.4.0.0^2,^7]trideca-1(9),2(7),3,5,10,12-hexaen-11-yl}ethan-1-one]	< 10
[2H]C([2H])([2H])c1nnn(C)c1-c1cnc2c3ccc(C4=CCSCC4)nc3n([C@H](c3ccccc3)C3CCOCC3)c2c1 [Example 203, 11-(3,6-Dihydro-2H-thiopyran-4-yl)-5-[4-(^2H3)methyl-1-methyl-1H-1,2,3-triazol-5-yl]-8-[(S)-oxan-4-yl(phenyl)methyl]-3,8,10-triazatricyclo[7.4.0.0^2,^7]trideca-1(9),2(7),3,5,10,12-hexaene]	< 10
[2H]C([2H])([2H])c1nnn(C)c1-c1cnc2c3ccc(C4=CCS(=O)(=O)CC4)nc3n([C@H](c3ccccc3)C3CCOCC3)c2c1 [Example 204, 4-{5-[4-(^2H3)Methyl-1-methyl-1H-1,2,3-triazol-5-yl]-8-[(S)-oxan-4-yl(phenyl)methyl]-3,8,10-triazatricyclo[7.4.0.0^2,^7]trideca-1(9),2(7),3,5,10,12-hexaen-11-yl}-3,6-dihydro-2H-1λ^6-thiopyran-1,1-dione]	< 10
[2H]C([2H])([2H])c1nnn(C)c1-c1cnc2c3ccc(C4CCS(=O)(=O)CC4)nc3n([C@H](c3ccccc3)C3CCOCC3)c2c1 [Example 205, 4-{5-[4-(^2H3)Methyl-1-methyl-1H-1,2,3-triazol-5-yl]-8-[(S)-oxan-4-yl(phenyl)methyl]-3,8,10-triazatricyclo[7.4.0.0^2,^7]trideca-1(9),2(7),3,5,10,12-hexaen-11-yl}-1λ^6-thiane-1,1-dione]	< 10
Cc1nnn(C)c1-c1cnc2c3ccc(NC(=O)OC(C)C)nc3n([C@H](c3ccccc3)C3CCOCC3)c2c1 [Example 206, Propan-2-yl N-[5-(dimethyl-1H-1,2,3-triazol-5-yl)-8-[(S)-oxan-4-yl(phenyl)methyl]-3,8,10-triazatricyclo[7.4.0.0^2,^7]trideca-1(9),2(7),3,5,10,12-hexaen-11-yl]carbamate]	< 10
Cc1nnn(C)c1-c1cnc2c3ccc(NC(=O)C(C)(C)C)nc3n([C@H](c3ccccc3)C3CCOCC3)c2c1 [Example 207, N-[5-(Dimethyl-1H-1,2,3-triazol-5-yl)-8-[(S)-oxan-4-yl(phenyl)methyl]-3,8,10-triazatricyclo[7.4.0.0^2,^7]trideca-1(9),2(7),3,5,10,12-hexaen-11-yl]-2,2-dimethylpropanamide]	< 10
Cc1nnn(C)c1-c1cnc2c3ccc(NS(C)(=O)=O)nc3n([C@H](c3ccccc3)C3CCOCC3)c2c1 [Example 208, N-[5-(Dimethyl-1H-1,2,3-triazol-5-yl)-8-[(S)-oxan-4-yl(phenyl)methyl]-3,8,10-triazatricyclo[7.4.0.0^2,^7]trideca-1(9),2(7),3,5,10,12-hexaen-11-yl]methanesulfonamide]	< 10
Cc1noc(C)c1-c1cnc2c3ccc(N4CCS(=O)(=O)CC4)nc3n([C@H](c3ccccc3)C3CCOCC3)c2c1 [Example 209, 4-[5-(Dimethyl-1,2-oxazol-4-yl)-8-[(S)-oxan-4-yl(phenyl)methyl]-3,8,10-triazatricyclo[7.4.0.0^2,^7]trideca-1(9),2(7),3,5,10,12-hexaen-11-yl]-1λ^6,4-thiomorpholine-1,1-dione]	< 10
Cc1nnn(C)c1-c1cnc2c3ccc(N4CCS(=O)(=O)CC4C)nc3n([C@H](c3ccccc3)C3CCOCC3)c2c1 (stereo partly drawn) [Example 210, 4-[5-(Dimethyl-1H-1,2,3-triazol-5-yl)-8-[(S)-oxan-4-yl(phenyl)methyl]-3,8,10-triazatricyclo[7.4.0.0^2,^7]trideca-1(9),2(7),3,5,10,12-hexaen-11-yl]-3-methyl-1λ^6,4-thiomorpholine-1,1-dione]	< 10
Cc1nnn(C)c1-c1cnc2c3ccc(N4CCS(=O)(=O)CC(C)C4)nc3n([C@H](c3ccccc3)C3CCOCC3)c2c1 (stereo partly drawn) [Example 211, 4-[5-(Dimethyl-1H-1,2,3-triazol-5-yl)-8-[(S)-oxan-4-yl(phenyl)methyl]-3,8,10-triazatricyclo[7.4.0.0^2,^7]trideca-1(9),2(7),3,5,10,12-hexaen-11-yl]-6-methyl-1λ^6,4-thiazepane-1,1-dione]	< 10
[2H]C([2H])([2H])c1nnn(C)c1-c1cnc2c3ccc(N4CC(=O)NC(=O)C4)nc3n([C@H](c3ccccc3)C3CCOCC3)c2c1 [Example 212, 4-{5-[4-(^2H3)Methyl-1-methyl-1H-1,2,3-triazol-5-yl]-8-[(S)-oxan-4-yl(phenyl)methyl]-3,8,10-triazatricyclo[7.4.0.0^2,^7]trideca-1(9),2(7),3,5,10,12-hexaen-11-yl}piperazine-2,6-dione]	< 10
Cc1nnn(C)c1-c1cnc2c3ccc(N4CCS(=O)(=O)C(C)C4)nc3n([C@H](c3ccccc3)C3CCOCC3)c2c1 (stereo partly drawn) [Example 213, 4-[5-(Dimethyl-1H-1,2,3-triazol-5-yl)-8-[(S)-oxan-4-yl(phenyl)methyl]-3,8,10-triazatricyclo[7.4.0.0^2,^7]trideca-1(9),2(7),3,5,10,12-hexaen-11-yl]-2-methyl-1λ^6,4-thiomorpholine-1,1-dione]	< 1
Cc1nnn(C)c1-c1cnc2c3ccc(N4CC5CC4CS5(=O)=O)nc3n([C@H](c3ccccc3)C3CCOCC3)c2c1 (stereo partly drawn) [Example 214, 5-[5-(Dimethyl-1H-1,2,3-triazol-5-yl)-8-[(S)-oxan-4-yl(phenyl)methyl]-3,8,10-triazatricyclo[7.4.0.0^2,^7]trideca-1(9),2(7),3,5,10,12-hexaen-11-yl]-2λ^6-thia-5-azabicyclo[2.2.1]heptane-2,2-dione]	< 1
CCOP(=O)(CCNc1ccc2c3ncc(-c4c(C)nnn4C)cc3n([C@H](c3ccccc3)C3CCOCC3)c2n1)OCC [Example 215, Diethyl (2-{[5-(dimethyl-1H-1,2,3-triazol-5-yl)-8-[(S)-oxan-4-yl(phenyl)methyl]-3,8,10-triazatricyclo[7.4.0.0^2,^7]trideca-1(9),2(7),3,5,10,12-hexaen-11-yl]amino}ethyl)phosphonate]	< 10
Cc1nnn(C)c1-c1cnc2c3ccc(N4CCS(=O)(=O)C(C)C4)nc3n(C(c3ccccc3)C3CCOCC3)c2c1 [Example 217, 4-[5-(Dimethyl-1H-1,2,3-triazol-5-yl)-8-[(S)-oxan-4-yl(phenyl)methyl]-3,8,10-triazatricyclo[7.4.0.0^2,^7]trideca-1(9),2(7),3,5,10,12-hexaen-11-yl]-2-methyl-1λ^6,4-thiomorpholine-1,1-dione]	< 10
Cc1nnn(C)c1-c1cnc2c3ccc(NCCP(=O)(O)O)nc3n([C@H](c3ccccc3)C3CCOCC3)c2c1 [Example 219, (2-{[5-(Dimethyl-1H-1,2,3-triazol-5-yl)-8-[(S)-oxan-4-yl(phenyl)methyl]-3,8,10-triazatricyclo[7.4.0.0^2,^7]trideca-1(9),2(7),3,5,10,12-hexaen-11-yl]amino}ethyl)phosphonic acid]	< 1
CCOP(=O)(O)CCNc1ccc2c3ncc(-c4c(C)nnn4C)cc3n([C@H](c3ccccc3)C3CCOCC3)c2n1 [Example 220, (2-{[5-(Dimethyl-1H-1,2,3-triazol-5-yl)-8-[(S)-oxan-4-yl(phenyl)methyl]-3,8,10-triazatricyclo[7.4.0.0^2,^7]trideca-1(9),2(7),3,5,10,12-hexaen-11-yl]amino}ethyl)(ethoxy)phosphinic acid]	< 1
Cc1nnn(C)c1-c1cnc2c3ccc(S(C)(=O)=O)nc3n([C@H](c3ccccc3F)C3CCOCC3)c2c1 [Example 221, 5-(Dimethyl-1H-1,2,3-triazol-5-yl)-8-[(S)-(2-fluorophenyl)(oxan-4-yl)methyl]-11-methanesulfonyl-3,8,10-triazatricyclo[7.4.0.0^2,^7]trideca-1(13),2(7),3,5,9,11-hexaene]	< 10
Cc1noc(C)c1-c1cnc2c3ccc(S(C)(=O)=O)nc3n([C@H](c3ccccc3F)C3CCOCC3)c2c1 [Example 222, 5-(Dimethyl-1,2-oxazol-4-yl)-8-[(S)-(2-fluorophenyl)(oxan-4-yl)methyl]-11-methanesulfonyl-3,8,10-triazatricyclo[7.4.0.0^2,^7]trideca-1(13),2(7),3,5,9,11-hexaene]	< 10
[2H]C([2H])([2H])C(=O)c1cc2c(cn1)c1ncc(-c3c(C)noc3C)cc1n2[C@H](c1ccc(F)cc1)C1CCOCC1 [Example 223, 1-[5-(Dimethyl-1,2-oxazol-4-yl)-8-[(S)-(4-fluorophenyl)(oxan-4-yl)methyl]-3,8,12-triazatricyclo[7.4.0.0^2,^7]trideca-1(13),2(7),3,5,9,11-hexaen-11-yl](^2H3)ethan-1-one]	< 10
